According to patent US20040229934A1, “Method of reducing type 2 diabetes in high risk patients” (priority 2002, published 2004):

Experiments:
[1] = tested on: patients older than 55 years without known diabetes but with vascular disease; assay: Heart Outcomes Prevention Evaluation (HOPE) trial: new diagnosis of diabetes; assay type: in vivo; conditions: for New Diabetes With Glycated Hemoglobin ≧110% ULN, RR (95% CI) / New Diabetes With Oral Agents or Insulin and Glycated Hemoglobin ≧110% ULN, RR (95% CI) / New Diabetes With Oral Agents or Insulin, RR (95% CI) / New Diabetes, RR (95% CI): vs placebo
Description: The design of the Heart Outcomes Prevention Evaluation (HOPE) trial has been described in detail in previous publications. Briefly, individuals who were 55 years or older with no evidence of left ventricular dysfunction or heart failure and who had evidence of vascular disease or who had diabetes and 1 other risk factor were eligible as long as they had no indication or contraindication to receiving an ACE-inhibitor. The study was conducted in […] in 19 countries from 1994 to 1999. All patients provided written informed consent. Of 10576 eligible patients who participated in a run-in period during which they received 2.5 mg ramipril once daily for 1 week followed by matching placebo for 10 to 14 days, 1035 (9.8%) were excluded from randomization (3.2% for side effects, 3.7% for lack of consent). […] This Example focuses primarily on the latter group of patients. Of these patients, 5720 were randomized to receive up to 10 mg of ramipril once per day or equivalent placebo. One hundred sixty-seven patients who were randomized to receive a low dose (2.5 mg/day) of ramipril as part of the Study to Evaluate Carotid Ultrasound changes with Ramipril and Vitamin E (SECURE). All randomized patients were also randomized to receive 400 IU of Vitamin E or placebo. Follow-up visits occurred at 1 month and 6 months after randomization and then every 6 months (mean follow-up of 4.5 years). At each visit, we documented whether the diagnosis of diabetes had been made since the last visit. The primary outcome of this analysis is a new diagnosis of diabetes recorded on the basis of self-report. […] Hemoglobin A1c (HbA1c) levels and medications used among those diagnosed as having diabetes were also recorded. The HbA1c, levels were determined locally. Values higher than 110% of the upper limit of normal for each laboratory were considered to be biochemical confirmation of diabetes. Survival curves utilizing the Kaplan Meier and log-rank procedures were used to describe and compare the results in the 2 treatment groups. Because of the factorial design, all analyses were stratified for randomization to vitamin E or placebo. Subgroup analyses were conducted using tests of interaction in the Cox regression model. Design, Setting and Participants. The randomized, controlled Heart Outcomes Prevention Evaluation trial of 5720 patients older than 55 years without known diabetes but with vascular disease who were followed up for a mean of 4.5 years. The study included 267 hospitals in 19 countries and was conducted between 1994 and 1999. Intervention. Patients were randomly assigned to receive ramipril, up to 10 mg/d (n=2837), or I Main Outcome Measure. Diagnosis of diabetes determined from self-report at follow-up visits every 6 months, compared between the 2 groups.

patients with diabetes = assay: HOPE trial: HbA1c levels among the patients with diabetes; assay type: in vivo; conditions: serial annual recordings, first 2 years
Description: The Study to Evaluate Carotid Ultrasound changes in patients treated with Ramipril and vitamin E (SECURE) in which fasting glucose increased more with placebo (15.8 mg/dL [0.41 mmols]) than with ramipril (9.6 mg/dL (0.25 mmols]; P=0.03). Among the patients with diabetes in the HOPE study, there was a significant reduction in HbA1c levels during serial annual recordings occurred during the first 2 years (absolute difference, 0.2%). In the UK Prospective Diabetes Study (UKPDS) and in the Captopril Prevention Project, patients randomized to receive ACE inhibitors had lower levels of HbA1c or less development of diabetes compared with those taking β-blockers or diuretics. However, it is not clear whether the differences in development of diabetes observed in these studies are due to a protective effect of ACE inhibitors or an adverse effect of β-blockers or diuretics.

[2] = controlling for primary events and development of MA or ON
[3] = ramipril up to 10 mg/d, n=2837, mean follow-up 4.5 years

CCOC(=O)[C@H](CCc1ccccc1)N[C@@H](C)C(=O)N1[C@H](C(=O)O)C[C@@H]2CCC[C@@H]21 [ramipril]
RR, footnote | | (New Diabetes With Oral Agents or Insulin and Glycated Hemoglobin ≧110% ULN): new diabetes with patient taking glucose-lowering therapy [1, 2]: | |Controlling for primary events and development of MA or ON, new diabetes with patient taking glucose-lowering therapy had a 0.52 RR (95% CI, 35-0.78). | RR, footnote § (New Diabetes With Oral Agents or Insulin): new diabetes with patient taking glucose-lowering therapy [1, 2]: §Controlling for primary events and development of MA or ON, new diabetes with patient taking glucose-lowering therapy had a 0.58 RR (95% CI, 42-0.79). | RR, footnote † (New Diabetes): new diabetes with glycated hemoglobin 110% [1, 2]: †Controlling for primary events and development of MA or ON, new diabetes with glycated hemoglobin 110% had a 0.67 RR (95% CI, 0..52-0.86). | RR, footnote ‡ (New Diabetes With Glycated Hemoglobin ≧110% ULN): new diabetes with patient taking glucose-lowering therapy [1, 2]: ‡Controlling for primary events and development of MA or ON, new diabetes with patient taking glucose-lowering therapy had a 0.58 RR (95% CI, 44-0.88). | proportion diagnosed with diabetes receiving an oral glucose lowering agent or insulin ([1]; ramipril group): 2.1% | proportion of patients diagnosed to have diabetes and a documented glycated hemoglobin of 110% or more above the upper limit of normal ([1]; ramipril group): 1.8% | proportion with all criteria (diabetes, glycated hemoglobin, glucose-lowering therapy) ([1]; ramipril group): 1.3% | relative risk [RR] of new diagnosis of diabetes ([1]; ramipril group vs placebo group): 0.66 | individuals who reported a new diagnosis of diabetes (number) [1, 3]: 102 and One hundred and two | individuals who reported a new diagnosis of diabetes (proportion) [1, 3]: 3.6% | RR for diabetes in the subgroup who never took diuretics or β-blockers during the study ([1]; ramipril vs placebo): 0.62 | RR, all criteria (both) ([1]; ramipril vs placebo): 0.51 | RR, diabetes with oral glucose lowering agent or insulin (initiation of glucose-lowering therapy) ([1]; ramipril vs placebo): 0.56 | RR, diagnosis of diabetes and glycated hemoglobin 110% or more ([1]; ramipril vs placebo): 0.60 | New Diabetes With Glycated Hemoglobin ≧110% ULN, number of patients ([1]; stratum: no new MA or ON): 42 | New Diabetes With Glycated Hemoglobin ≧110% ULN, proportion (in parentheses) ([1]; stratum: no new MA or ON): 1.7 | New Diabetes With Oral Agents or Insulin and Glycated Hemoglobin ≧110% ULN, number of patients ([1]; stratum: no new MA or ON): 30 | New Diabetes With Oral Agents or Insulin and Glycated Hemoglobin ≧110% ULN, proportion (in parentheses) ([1]; stratum: no new MA or ON): 1.2 | New Diabetes With Oral Agents or Insulin, number of patients ([1]; stratum: no new MA or ON): 45 | New Diabetes With Oral Agents or Insulin, proportion (in parentheses) ([1]; stratum: no new MA or ON): 1.8 | New Diabetes, number of patients ([1]; stratum: no new MA or ON): 82 | New Diabetes, proportion (in parentheses) ([1]; stratum: no new MA or ON): 9.3 | New Diabetes With Glycated Hemoglobin ≧110% ULN, RR (95% CI) ([1]; stratum: no new MA or ON): 0.66 (0.48-0.98) | New Diabetes With Oral Agents or Insulin and Glycated Hemoglobin ≧110% ULN, RR (95% CI) ([1]; stratum: no new MA or ON): 0.80 (0.38-0.84) | New Diabetes With Oral Agents or Insulin, RR (95% CI) ([1]; stratum: no new MA or ON): 0.56 (0.39-0.81) | New Diabetes, RR (95% CI) ([1]; stratum: no new MA or ON): 0.87 (0.51-0.89) | New Diabetes With Glycated Hemoglobin ≧110% ULN, number of patients ([1]; stratum: no primary event): 45 | New Diabetes With Glycated Hemoglobin ≧110% ULN, proportion (in parentheses) ([1]; stratum: no primary event): 1.8 | New Diabetes With Oral Agents or Insulin and Glycated Hemoglobin ≧110% ULN, number of patients ([1]; stratum: no primary event): 32 | New Diabetes With Oral Agents or Insulin and Glycated Hemoglobin ≧110% ULN, proportion (in parentheses) ([1]; stratum: no primary event): 1.9 | New Diabetes With Oral Agents or Insulin, number of patients ([1]; stratum: no primary event): 54 | New Diabetes With Oral Agents or Insulin, proportion (in parentheses) ([1]; stratum: no primary event): 2.2 | New Diabetes, number of patients ([1]; stratum: no primary event): 93 | New Diabetes, proportion (in parentheses) ([1]; stratum: no primary event): 3.8 | New Diabetes With Glycated Hemoglobin ≧110% ULN, RR (95% CI) ([1]; stratum: no primary event): 0.81 (0.42-0.89) | New Diabetes With Oral Agents or Insulin and Glycated Hemoglobin ≧110% ULN, RR (95% CI) ([1]; stratum: no primary event): 0.61 (0.33-.78) | New Diabetes With Oral Agents or Insulin, RR (95% CI) ([1]; stratum: no primary event): 0.58 (0.42-0.82) | New Diabetes, RR (95% CI) ([1]; stratum: no primary event): 0.69 (0.53-0.91) | New Diabetes With Glycated Hemoglobin ≧110% ULN, number of patients ([1]; stratum: with new MA or ON): 10 | New Diabetes With Glycated Hemoglobin ≧110% ULN, proportion (in parentheses) ([1]; stratum: with new MA or ON): 2.8 | New Diabetes With Oral Agents or Insulin and Glycated Hemoglobin ≧110% ULN, number of patients ([1]; stratum: with new MA or ON): 6 | New Diabetes With Oral Agents or Insulin and Glycated Hemoglobin ≧110% ULN, proportion (in parentheses) ([1]; stratum: with new MA or ON): 1.7 | New Diabetes With Oral Agents or Insulin, number of patients ([1]; stratum: with new MA or ON): 14 | New Diabetes With Oral Agents or Insulin, proportion (in parentheses) ([1]; stratum: with new MA or ON): 3.9 | New Diabetes, number of patients ([1]; stratum: with new MA or ON): 20 | New Diabetes, proportion (in parentheses) ([1]; stratum: with new MA or ON): 5.6 | New Diabetes With Glycated Hemoglobin ≧110% ULN, RR (95% CI) ([1]; stratum: with new MA or ON): 0.47 (0.23-0.98) | New Diabetes With Oral Agents or Insulin and Glycated Hemoglobin ≧110% ULN, RR (95% CI) ([1]; stratum: with new MA or ON): 0.32 (0.13-0.79) | New Diabetes With Oral Agents or Insulin, RR (95% CI) ([1]; stratum: with new MA or ON): 0.61 (0.32-1.16) | New Diabetes, RR (95% CI) ([1]; stratum: with new MA or ON): 0.85 (0.38-1.12) | New Diabetes With Glycated Hemoglobin ≧110% ULN, number of patients ([1]; stratum: with primary event): 7 | New Diabetes With Glycated Hemoglobin ≧110% ULN, proportion (in parentheses) ([1]; stratum: with primary event): 1.9 | New Diabetes With Oral Agents or Insulin and Glycated Hemoglobin ≧110% ULN, number of patients ([1]; stratum: with primary event): 4 | New Diabetes With Oral Agents or Insulin and Glycated Hemoglobin ≧110% ULN, proportion (in parentheses) ([1]; stratum: with primary event): 1.1 | New Diabetes With Oral Agents or Insulin, number of patients ([1]; stratum: with primary event): 5 | New Diabetes With Oral Agents or Insulin, proportion (in parentheses) ([1]; stratum: with primary event): 1.3 | New Diabetes, number of patients ([1]; stratum: with primary event): 9 | New Diabetes, proportion (in parentheses) ([1]; stratum: with primary event): 2.4 | New Diabetes With Glycated Hemoglobin ≧110% ULN, RR (95% CI) ([1]; stratum: with primary event): 0.59 (0.24-1.43) | New Diabetes With Oral Agents or Insulin and Glycated Hemoglobin ≧110% ULN, RR (95% CI) ([1]; stratum: with primary event): 0.64 (0.17-1.72) | New Diabetes With Oral Agents or Insulin, RR (95% CI) ([1]; stratum: with primary event): 0.42 (0.15-1.14) | New Diabetes, RR (95% CI) ([1]; stratum: with primary event): 0.48 (0.21-0.98) | results among subgroups with different risk factors for developing diabetes (FIG. 2) ([1]; waist to hip ratio, BMI, hypertension history, β-blockers or diuretics at randomization): consistent | reduction in HbA1c levels, absolute difference (patients with diabetes): 0.2%

Vitamin E
effect on diabetes compared with placebo ([1]; 400 IU of Vitamin E, factorial design): did not differ
